PMC3198402 (PLoS ONE, 2011)
Where no end group is shown, it is not given here.

Legend:
Experiment in all cases: biochemical
Format in all cases: binding
B*5801 = B*5801 (Homo sapiens, UniProt P01889, A329T/C349S/D201E/D98Y/E176V/E187L/E204Q/E69T/G107R/I218V/I90N/K202T/L105A/L119I/N104I/N87E/Q89R/Q94S/R106L/R155S/R180L/R86G/S101N/S121R/S35A/S48A/T118I/V127L/V306I/V36M/Y140S/Y91M)
B*3501 = B*3501 (Homo sapiens, UniProt P01889, A329T/A93T/A95T/C349S/D201E/D98Y/E176V/E187L/E204Q/E69T/I218V/K202T/L119I/Q94N/R155S/R180L/S121R/S35A/S48A/T118I/V127L/V306I/V36M/Y140S/Y91F)
B*1501 = B*1501 (Homo sapiens, UniProt P01889, A329T/A93T/A95T/C349S/D201E/D98Y/E187L/E204Q/E69M/E70A/K202T/N87E/Q94N/R155S/R180W/S121R/S35A/S48A/V306I/V36M/Y140S/Y91S)
A*0101 = A*0101 (Homo sapiens, UniProt P04439, A114D/A174V/A182V/D101N/D185E/E176A/E190D/L180R/Q94H/R68K/S129P/T187R/V100A/V91M/W191G)
A*2601 = A*2601 (Homo sapiens, UniProt P04439, A114D/A173T/A270S/D101N/D185E/E277Q/E87N/F33Y/G231S/I121R/I218V/K168Q/L180W/L300P/L318F/P208A/P217A/Q86R/Q94H/R138Q/S129P/T187R/T323A/T345S/V100A/V358M)
HLA-B*07:02 = HLA-B*07:02 (Homo sapiens, UniProt P01889)

## KAVHADMGY [Peptide 14688]
B*5801
  Kd: 30 nM
B*3501
  Kd: 302 nM

## KLEGKIVQY [Peptide 14705]
B*1501
  Kd: 126 nM

## KLQLKGMSY [Peptide 14697]
B*1501
  Kd: 111 nM

## KMCTDKMSF [YFV B62 16017]
B*1501
  Kd: 184 nM

## KSAAIDGEY [Peptide 14590]
A*0101
  Kd: 50 nM

## KTNDRKWCF [YFV B58 16004]
B*5801
  Kd: 58 nM

## KTWGKNLVF [YFV B58 16008]
B*5801
  Kd: 19 nM

## LAVMGDAAW [YFV [B58] 16015]
B*5801
  Kd: 3 nM
B*3501
  Kd: 1 nM

## LVLAVGPAY [YFV A26/B62 16034]
A*2601
  Kd: 5120 nM
B*3501
  Kd: 1 nM

## MAGCGYLMF [YFV A24 15904]
B*3501
  Kd: 2 nM

## MPRSIGGPV [Peptide 15931]
HLA-B*07:02
  Kd: 5 nM

## MPVMKRYSA [Peptide 14717]
HLA-B*07:02
  Kd: 30 nM

## MTGVMRGNY [YFV A1 15863]
A*0101
  Kd: 54 nM

## MVRRGVRSL [Peptide 15926]
HLA-B*07:02
  Kd: 3 nM

## MYMALIAAF [YFV A24 15907]
B*3501
  Kd: 207 nM

## NRDGDSYYY [YFV A1 15858]
A*0101
  Kd: 1920 nM

## NVHTWTEQY [Peptide 14625]
A*2601
  Kd: 39 nM

## QPKPGTRMV [Peptide 14716]
HLA-B*07:02
  Kd: 14 nM

## RERLSRMAI [Peptide 14712]
HLA-B*07:02
  Kd: 444 nM

## RQLQKIERW [YFV B58 16007]
B*5801
  Kd: 67 nM

## RTWHYCGSY [YFV [B62] 16018]
B*1501
  Kd: 68 nM

## RVLDCRTAF [Peptide 16035]
HLA-B*07:02
  Kd: 240 nM

## RVSSDQSAL [Peptide 15934]
HLA-B*07:02
  Kd: 95 nM

## SIQDNQVAY [YFV B62 16022]
B*1501
  Kd: 217 nM

## SPSKLASAI [Peptide 14708]
HLA-B*07:02
  Kd: 12 nM

## SQEAEFTGY [YFV B62 16020]
B*1501
  Kd: 94 nM

## SQHNYRPGY [Peptide 14699]
B*1501
  Kd: 22 nM

## STTSQKTTW [Peptide 14693]
B*5801
  Kd: 31 nM

## SVAMCRTPF [Peptide 16036]
HLA-B*07:02
  Kd: 290 nM

## SVKKDLISY [Peptide 14634]
A*2601
  Kd: 31 nM

## TAVDFGNSY [YFV A26 15919]
A*2601
  Kd: 8 nM
B*3501
  Kd: 1 nM

## TLYAVATTF [Peptide 14700]
B*1501
  Kd: 133 nM

## VALSEQGEF [YFV B58 16005]
B*5801
  Kd: 286 nM

## VLIEVNPPF [YFV B62 16024]
B*1501
  Kd: 69 nM
B*3501
  Kd: 39 nM

## VSGKLIHEW [Peptide 14694]
B*5801
  Kd: 32 nM

## VTRGAVLMY [Peptide 14633]
A*2601
  Kd: 241 nM

## VVQDPKNVY [YFV [B62] 16023]
B*1501
  Kd: 174 nM

## YTIDCDGSI [YFV A26 15923]
A*2601
  Kd: 251 nM

## YVIRDLAAM [YFV A26 15917]
A*2601
  Kd: 1 nM
B*3501
  Kd: 1 nM
